Results taken from patent publication US9879036B2, “Mitochondrial aldehyde dehydrogenase-2 binding compounds and methods of use thereof” (Aviv Therapeutics, Inc., priority 2014, dated 2018).
“Also recorded” adds a separate entry of the source. Each block holds one molecule with its values, some of them ahead of it.

What was measured:
[1] = system: carrageenan inflammatory pain model in male C57BL/6 mice; assay: Carrageenan inflammatory pain model, Von Frey paw withdrawal threshold; type: in vivo; details: for contralateral paw withdrawal threshold / ipsilateral paw withdrawal threshold compared to vehicle: 180 minutes after carrageenan; for carrageenan-induced mechanical hyperalgesia: ipsilateral paw
Description: Mice are acclimated to the colony room and maintained on a 12 hour/12 hour light/dark cycle. To induce plantar sensitivity to tactile stimuli, a single injection of carrageenan is administered to the plantar hindpaw of the mice and withdrawal from a mechanical stimulus is measured by applying Von Frey filaments of ascending bending force to the plantar surface of the hind paws.
A compound of formula (I) is dissolved and administered subcutaneous (sc) or orally (po) prior to carrageenan administration and after carrageenan injections. Data is analyzed by analysis of variance (ANOVA) followed by post-hoc comparisons with Fisher Tests when appropriate.
The analgesic effects of AC151 and Alda-1 were evaluated using the carrageenan inflammatory pain model in male C57BL/6 mice. The mice were administered AC151, Alda-1 and vehicle (saline) as a control.
Male C57BL/6J mice from Jackson Laboratories (Bar Harbor, Me.) were used in this study. Mice were received at 6-7 weeks of age. Upon receipt, mice were assigned unique identification numbers (tail marked) and were group housed in OPTImice cages. All animals were acclimated to the colony room for at least 1 week prior to testing. During the period of acclimation, animals were examined on a regular basis, handled, and weighed to assure adequate health and suitability. Animals were maintained on a 12 hour/12 hour light/dark cycle. The room temperature was maintained between 20° C. and 23° C. with a relative humidity maintained between 30% and 70%. Chow and water were provided ad libitum for the duration of the study. All testing was performed during the animal's light cycle phase.
To induce plantar sensitivity to tactile stimuli, a single injection of carrageenan was administered to the plantar hindpaw of the mice and three hours later withdrawal from a mechanical stimulus is measured by applying Von Frey filaments of ascending bending force (0.02 to 6 grams) to the plantar surface of the hind paws (ipsilateral and contralateral to injection). A positive response was defined as withdrawal from the Von Frey filament. Confirmation of threshold is tested by examining the filament above and below the withdrawal response. A significant decrease in withdrawal threshold is interpreted as mechanical hyperalgesia. Prior to drug or carrageenan treatment, baseline Von Frey measures were taken and used to balance animals across treatment groups.
Alda-1 (1, 2, and 5 mg/kg) was dissolved in 50% DMSO/50% PEG and administered subcutaneous (sc), 15 min prior to carrageenan administration and twice again 30 and 150 minutes after carrageenan injections at a dose volume of 5 ml/kg. AC151 (40 and 80 mg/kg) was dissolved in saline and administered orally (po), 30 min after carrageenan administration. For one group, AC151 (80 mg/kg) was administered 15 min prior to carrageenan injections. The dose volume for this compound was 10 ml/kg.
The initial injections of AC151 (80 mg/kg) and Alda-1 were made 15 min prior to carrageenan injections. Then, a single 3.5 μl injection of 3% carrageenan was administered to the right plantar hindpaw. Alda-1 was then administered twice, once 30 minutes after carrageenan and again 150 minutes post-carrageenan. In separate treatment groups AC151 (40 mg/kg and 80 mg/kg) as well as saline vehicle were administered 30 minutes after carrageenan injection. Von Frey measures were taken 180 minutes after carrageenan injection.
Data were analyzed by analysis of variance (ANOVA) followed by post-hoc comparisons with Fisher Tests when appropriate. An effect was considered significant if p<0.05. […].

[2] = system: FANCA deficiency lymphocyte cell line (FANCA B-lymphocyte, GM13022); assay: Proliferation of FANCA deficient lymphocytes under 4 HNE challenge (alamarBlue); type: cell-based
Description: FANCA deficiency lymphocyte cell line (Fanconi Anemia, Complementation Group A, FANCA B-lymphocyte, GM13022) was purchased from Coriell Cell Repositories (403 Haddon Ave, Camden, N.J. 08103).
Standard cell culture conditions were used in this experiment. The culture medium (CM) consisted of culture medium RPMI1640, 15% heat-inactivated FBS, 2 mM L-glutamine, 1% Pen/Strep. Cells were suspended in 10-20 ml CM in T25 tissue culture flask in an upright position and incubated in a 37° C., 5% CO2 incubator. Cells were counted daily and diluted with fresh CM to 3×10^5 cells/ml. Cells thawed and maintained in culture for 3-12 days were used in these studies.
Cell densities of FANCA lymphocytes were determined and cells were diluted in RPMI1640 medium containing 15% FBS, 2 mM L-glutamine, 1% Pen/Strep to desired cell density. 4000 cells in 50-75 μl were plated onto each well in total 48 wells in columns 3-10 and rows B-G. This plating arrangement provided 6-replicates per column for each experimental condition. Plate was then centrifuged at 500 rpm for 2 min to ensure better distribution of cells across the well. For background medium controls, equal volume (50-75 μl) of dilution medium were added to wells B2, C2, D2.
For minimizing cells/medium drying in sample wells, 150 μl of 1×DPBS was added to each well of the 45 wells surrounding the sample and control wells. Plate was then incubated in a 37° C. 5% CO2 incubator for at least 4 hours before addition of new reagent.
Compounds were diluted from 20 mM stocks in DMSO with RPMI1640 medium containing 15% FBS. RPMI1640 medium containing 15% FBS and corresponding volume of DMSO was used as controls.
4 HNE (64 mM in 100% ethanol) was diluted to desired concentrations with RPMI1640 base medium.
AlamarBlue was added to each well to final 9.1 or 10% of the total volume in each well. Plate was further incubated in the 37° C. 5% CO2 incubator. The alamarBlue assay is designed to measure quantitatively the proliferation of human and animal cell lines in culture versus incubation time period.
Plate was removed from the CO2 incubator at a pre-designated time and placed in the microplate reader. The fluorescence level in each well was monitored at Ex 554 nm and Em 590 nm. Afterwards the numeric numbers/units were used for data analyses.
Fluorescence units in all wells were acquired by the microplate reader at each time point. Data were then exported to scientist's computer equipped with SoftMax ProS software. The average of Background units (Blk, 3×) and the average of each sample set (6 replicates) were determined. For data collected at each time point (cell culture incubation period), the average of Blk units were subtracted from the average of each set of the Sample units. These “net fluorescence unit” data were then presented in a plot consisted of different culture incubation time periods (the x-axis) versus the corresponding net fluorescence units (y-axis).
The “net fluorescence units” of each sample set were also compared to those of the “control” at each time point. “Control fluorescence units” were considered to be 100% at all the time points. Each set of “net fluorescence units” were divided by the “Control fluorescent units” and multiplied by 100 to obtain corresponding percentages. These “relative percentage” data were then presented in a plot consisted of time points (the x-axis) versus the corresponding relative percentages to control of 100 (y-axis).
The inhibitory effect of 4 HNE on the proliferation of FANCA lymphocytes was examined. 4000 cells in 75 μl of RPMI1640 medium containing 15% FBS were plated onto each sample well in a 96-well poly D-lysine coated black/clear cell culture plate and the plate was incubated in a 37° C. 5% CO2 incubator for 7 hours.
Stock of 4 HNE at 64 mM was diluted with RPMI1640 medium to 10 μM, 20 μM, 30 μM, 40 μM, 60 μM, 80 μM, and 120 μM. […]

ALDH2 = target: T1, ALDH2 (Homo sapiens, UniProt P05091); assay: ALDH2 activity with 20 μM of the compound (Table 3); type: biochemical; details: 20 μM compound
T1 construct: His-tag (N); made in house; host or cells: E. coli BL21
T1 sequence (P05091 18-517): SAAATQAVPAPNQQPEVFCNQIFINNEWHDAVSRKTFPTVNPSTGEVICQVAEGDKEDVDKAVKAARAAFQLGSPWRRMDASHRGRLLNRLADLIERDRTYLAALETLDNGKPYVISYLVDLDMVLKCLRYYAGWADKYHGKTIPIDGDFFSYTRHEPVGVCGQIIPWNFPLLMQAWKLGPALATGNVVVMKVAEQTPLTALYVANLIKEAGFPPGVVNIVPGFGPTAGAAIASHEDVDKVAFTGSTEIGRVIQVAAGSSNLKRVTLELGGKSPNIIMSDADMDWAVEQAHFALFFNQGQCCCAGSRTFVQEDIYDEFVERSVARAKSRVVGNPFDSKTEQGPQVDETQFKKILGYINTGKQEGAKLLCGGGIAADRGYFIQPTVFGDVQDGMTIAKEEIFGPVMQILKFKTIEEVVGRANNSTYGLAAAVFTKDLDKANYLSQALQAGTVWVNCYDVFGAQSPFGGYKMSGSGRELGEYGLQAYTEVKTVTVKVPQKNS
In short: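 Compound was tested at 20 μM. ALDH2 oxidation of acetaldehyde with NAD+ cofactor was followed spectrophotometrically as NADH accumulation at 340 nm. Activity is expressed relative to the enzyme's baseline activity, taken as 100%.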

Structure (SMILES): COc1ccc(CNC(=O)c2cc(-c3ncccc3COC(=O)[C@H](N)C(C)C)ccc2OCC(C)C)cc1F [AC151]
contralateral paw withdrawal threshold [1]: No treatment effects
ipsilateral paw withdrawal threshold compared to vehicle ([1]; AC151 40 and 80 mg/kg po (all groups)): significantly increased paw withdrawal threshold
carrageenan-induced mechanical hyperalgesia [1]: attenuated carrageenan-induced mechanical hyperalgesia

Structure (SMILES): CCCCCC(O)/C=C/C=O (stereo not drawn) [4 HNE, trans-4-Hydroxynonenal, reference compound]
relative cell proliferation rate (control = 100%) ([2]; 3.5 μM 4 HNE only, 25 hours to 48 hours after 4 HNE treatment): 83%
level of FANCA cell proliferation ([2]; 4 HNE 2.5 to 30 μM, no ALDH2 activator): reduction of the level of cell proliferation in a concentration-dependent manner

Structure (SMILES): O=C(NCc1ccc2c(c1)OCO2)c1c(Cl)cccc1Cl [Alda-1, N-(1,3-Benzodioxol-5-ylmethyl)-2,6-dichlorobenzamide, reference compound]
contralateral paw withdrawal threshold [1]: No treatment effects
ipsilateral paw withdrawal threshold compared to vehicle ([1]; Alda-1 5 mg/kg sc, three doses): significantly increased paw withdrawal threshold
carrageenan-induced mechanical hyperalgesia [1]: attenuated carrageenan-induced mechanical hyperalgesia

activity at 20 µM (ALDH2): > 250%
Structure (SMILES): COc1ccc(CNC(=O)c2cc(-c3n[nH]cc3CO)ccc2OCC2CC2)cc1F [AC32]
relative cell proliferation versus control without AC compounds ([2]; 3.5 μM 4 HNE, 5 μM and 10 μM AC6, 10 μM AC32, 25 hours to 48 hours after 4 HNE treatment): higher levels of cell growth than “control”; also recorded: more efficient growth than control
FANCA-deficiency lymphocyte cell growth versus 4 HNE only or 2 μM ALDH2 activators ([2]; 10 μM compound, pretreatment 2 hours before 6 μM 4 HNE challenge): higher levels of cell growth
FANCA-deficiency lymphocyte cell growth versus 4 HNE only ([2]; pretreatment 2 hours before 3.5 μM 4 HNE challenge, 2 to 10 μM compound): higher levels of cell growth
